Counter-ions that a name gives are not always drawn.

For one assay, the target named is T1, human EP1 receptor (Homo sapiens, UniProt P34995).
T1 construct: expressed in transfected cells; host or cells: CHO-K1
T1 sequence (P34995 1-402): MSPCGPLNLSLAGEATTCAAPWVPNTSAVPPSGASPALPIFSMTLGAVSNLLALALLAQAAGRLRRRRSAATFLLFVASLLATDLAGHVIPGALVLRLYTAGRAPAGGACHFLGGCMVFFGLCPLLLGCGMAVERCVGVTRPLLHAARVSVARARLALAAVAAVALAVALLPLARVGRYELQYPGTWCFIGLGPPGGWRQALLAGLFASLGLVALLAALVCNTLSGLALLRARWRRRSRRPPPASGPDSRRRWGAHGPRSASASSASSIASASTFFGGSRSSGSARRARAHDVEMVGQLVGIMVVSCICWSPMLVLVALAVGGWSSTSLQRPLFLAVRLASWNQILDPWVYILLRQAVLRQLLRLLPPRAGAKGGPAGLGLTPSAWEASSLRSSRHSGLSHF
Description: human EP1 calcium mobilisation assay. It counts as cell-based. The settings on record: human EP1, CHO-K1 cells, antagonism of PGE2; averages of a number of experiments; read-out: functional pKi value (converted). Here is the method: Briefly, the antagonist properties of compounds are assessed by their ability to inhibit the mobilisation of intracellular calcium ([Ca^2+]i) in response to activation of EP1 or EP3 receptors by the natural agonist hormone prostaglandin E2 (PGE2). Increasing concentrations of antagonist reduce the amount of calcium that a given concentration of PGE2 can mobilise. The net effect is to displace the PGE2 concentration-effect curve to higher concentrations of PGE2. The amount of calcium produced is assessed using a calcium-sensitive fluorescent dye such as Fluo-4, AM and a suitable instrument such as a Fluorimetric Imaging Plate Reader (FLIPR). Increasing amounts of [Ca^2+]i produced by receptor activation increase the amount of fluorescence produced by the dye and give rise to an increasing signal. The signal may be detected using the FLIPR instrument and the data generated may be analysed with suitable curve-fitting software.
The human EP1 or EP3 calcium mobilisation assay (hereafter referred to as ‘the calcium assay’) utilises Chinese hamster ovary-K1 (CHO-K1) cells into which a stable (pCIN; BioTechniques 20 (1996): 102-110) vector containing either EP1 or EP3 cDNA has previously been transfected. Cells are cultured in suitable flasks containing culture medium such as DMEM:F-12 supplemented with 10% v/v foetal calf serum, 2 mM L-glutamine, 0.25 mg/ml geneticin, 100 μM flurbiprofen and 10 μg/ml puromycin.
For assay, cells are harvested using a proprietary reagent that dislodges cells such as Versene. Cells are re-suspended in a suitable quantity of fresh culture media for introduction into a 384-well plate. Following incubation for 24 hours at 37° C. the culture media is replaced with a medium containing Fluo-4 and the detergent pluronic acid, and a further incubation takes place. Concentrations of compounds are then added to the plate in order to construct concentration-effect curves. This may be performed on the FLIPR in order to assess the agonist properties of the compounds. Concentrations of PGE2 are then added to the plate in order to assess the antagonist properties of the compounds.
The data so generated may be analysed by means of a computerised curve-fitting routine. The concentration of compound that elicits a half-maximal inhibition of the calcium mobilisation induced by PGE2 (pIC50) may then be estimated.
For the molecule `CC(C)COc1ccc(Cl)cc1Cc1cccc(NC(=O)c2ccc(CN3CCN(C)CC3)cc2)n1` [Example 48], the Ki was not above 10 µM.

Consider `CC(C)COc1ccc(Cl)cc1Cc1cccc(NC(=O)c2ccc(CN3CCCC3)cc2)n1` [Example 46, N-[6-({5-Chloro-2-[(2-methylpropyl)oxy]phenyl}methyl)-2-pyridinyl]-4-(1-pyrrolidinylmethyl)benzamidehydrochloride], for which the Ki is not above 10 µM. For `O=C(Nc1cccc(Cc2cc(Cl)ccc2OCc2ccccc2)n1)c1ccccc1` [Example 3, N-[6-({5-Chloro-2-[(phenylmethyl)oxy]phenyl}methyl)-2-pyridinyl]benzamide], the Ki was not above 0.316 µM.

As to `Fc1cccc2[nH]c(-c3cccc(Cc4cc(Cl)ccc4OCc4ccccc4)n3)nc12` [Example 32, 2-[6-({5-Chloro-2-[(phenylmethyl)oxy]phenyl}methyl)-2-pyridinyl]-4-fluoro-1H-benzimidazolehydrochioride], the Ki was not above 10 µM.

Take `CC(C)COc1ccc(Cl)cc1Cc1cccc(-c2nc3cnc4ccccc4c3[nH]2)n1` [Example 24, 2-[6-({5-Chloro-2-[(2-methylpropyl)oxy]phenyl}methyl)-2-pyridinyl]-1H-imidazo[4,5-c]quinoline hydrochloride]: the Ki is not above 0.316 µM.

In the case of `CC(C)COc1ccc(Cl)cc1Cc1cccc(-c2nc3ccc(CN4CCCCC4)cc3[nH]2)n1` [Example 50, 2-[6-({5-Chloro-2-[(2-methylpropyl)oxy]phenyl}methyl)-2-pyridinyl]-5-(1-piperidinylmethyl)-1H-benzimidazole hydrochloride], the Ki is not above 10 µM. The same measure, in the same setting: the result for `CC(C)(C)OC(=O)Nc1cccc(Cc2cc(Cl)ccc2OCc2ccc(Cl)cc2F)n1` [Example 60, 1,1-Dimethylethyl {6-[(5-chloro-2-{[(4-chloro-2-fluoronhenyl)methyl]oxy}phenyl)methyl]-2-pyridinyl}carbamate] reads not above 10 µM; that for `CC(C)COc1ccc(Cl)cc1Cc1cccc(NC(=O)c2ccc(CN3CCCCC3)cc2)n1` [Example 47, N-[6-({5-Chloro-2-[(2-methylpropyl)oxy]phenyl}methyl)-2-pyridinyl]-4-(1-piperidinylmethyl)benzamidehydrochloride], not above 10 µM; that for `Clc1ccc(OCc2ccccc2)c(Cc2cccc(-c3nc4cnccc4[nH]3)n2)c1` [Example 38, 2-[6-({5-Chloro-2-[(phenylmethyl)oxy]phenyl}methyl)-2-pyridinyl]-1H-imidazo[4,5-c]pyridinehydrochloride], not above 0.316 µM. Take `NC(=O)c1cccc(Cc2cc(Cl)ccc2OCc2ccc(Cl)cc2F)n1` [Example 63, 6-[(5-Chloro-2-{[(4-chloro-2-fluorophenyl)methyl]oxy}phenyl)methyl]-2-pyridinecarboxamide]: the Ki is not above 10 µM. Still for that read-out and setting: the result for `CN1CCN(c2ccc3nc(-c4cccc(Cc5cc(Cl)ccc5OCc5ccccc5)n4)[nH]c3c2)CC1` [Example 26, 2-[6-({5-Chloro-2-[(phenylmethyl)oxy]phenyl}methyl)-2-pyridinyl]-5-(4-methyl-1-piperazinyl)-1H-benzimidazole Hydrochloride] reads not above 10 µM; that for `O=C(Cc1ccccc1)Nc1cccc(Cc2cc(Cl)ccc2OCc2ccccc2)n1` [Example 2, N-[6-({5-Chloro-2-[(phenylmethyl)oxy]phenyl}methyl)-2-pyridinyl]-2-phenylacetamide], not above 10 µM; that for `CC(C)COc1ccc(Cl)cc1Cc1cccc(NC(=O)c2ccc(CN3CCOCC3)cc2)n1` [Example 45, N-[6-({5-Chloro-2-[(2-methylpropyl)oxy]phenyl}methyl)-2-pyridinyl]-4-(4-morpholinylmethyl)benzamide Hydrochloride], not above 0.316 µM.

In the case of `O=C(NCc1ccccn1)c1cccc(Cc2cc(Cl)ccc2OCc2ccccc2)n1` [Example 7, 6-({5-Chloro-2-[(phenylmethyl)oxy]phenyl}methyl)-N-(2-pyridinylmethyl)-2-pyridinecarboxamide], the Ki was not above 0.316 µM.

Still in this assay, the particulars now being: human EP1 calcium mobilisation assay; read-out: pIC50 values (converted).
As to `Fc1ccc2nc(-c3cccc(Cc4cc(Cl)ccc4OCc4ccccc4)n3)[nH]c2c1F` [Example 40, 2-[6-({5-Chloro-2-[(phenylmethyl)oxy]phenyl}methyl)-2-pyridinyl]-4,5-difluoro-1H-benzimidazolehydrochloride], the IC50 was more than 10 µM. Regarding `Fc1cc2nc(-c3cccc(Cc4cc(Cl)ccc4OCc4ccccc4)n3)[nH]c2cc1F` [Example 37, 2-[6-({5-Chloro-2-[(phenylmethyl)oxy]phenyl}methyl)-2-pyridinyl]-5,6-difluoro-1H-benzimidazolehydrochloride], the IC50 was more than 10 µM.

On to `O=C(Nc1ccccc1)c1cccc(Cc2cc(Cl)ccc2OCc2ccccc2)n1` [Example 10, 6-({5-Chloro-2-[(phenylmethyl)oxy]phenyl}methyl)-N-phenyl-2-pyridinecarboxamide], for which the IC50 was more than 10 µM. For the molecule `O=C(Nc1cccc(Cc2cc(Cl)ccc2OCc2ccccc2)n1)c1cccnc1` [Example 16, N-[6-({5-Chloro-2-[(phenylmethyl)oxy]phenyl}methyl)-2-pyridinyl]-3-pyridinecarboxamide], the IC50 was more than 10 µM. On to `O=C(Nc1ccccn1)c1cccc(Cc2cc(Cl)ccc2OCc2ccccc2)n1` [Example 6, 6-({5-Chloro-2-[(phenylmethyl)oxy]phenyl}methyl)-N-2-pyridinyl-2-pyridinecarboxamide], for which the IC50 was more than 10 µM.

For `O=C(NCc1ccccc1)c1cccc(Cc2cc(Cl)ccc2OCc2ccccc2)n1` [Example 11, 6-({5-Chloro-2-[(phenylmethyl)oxy]phenyl}methyl)-N-(phenylmethyl)-2-pyridinecarboxamide], the IC50 was more than 10 µM.

In a further assay the target is T2, human prostanoid EP1 receptor (Homo sapiens, UniProt P34995).
T2 construct: expressed in transfected cells; host or cells: CHO-K1 (membrane fraction)
T2 sequence (P34995 1-402): T1 sequence (P34995 1-402)
Nature of the assay: Binding assay for the human prostanoid EP1 receptor (competition with [3H]-PGE2). The following applies: [3H]-PGE2 competition, human EP1, CHO-K1 membranes; averages of a number of experiments; read-out: pIC50 value (converted). Here is the method:
Competition assay using [^3H]-PGE2.
Compound potencies are determined using a radioligand binding assay. In this assay compound potencies are determined from their ability to compete with tritiated prostaglandin E2 ([^3H]-PGE2) for binding to the human EP1 receptor.
This assay utilises Chinese hamster ovary-K1 (CHO-K1) cells into which a stable vector containing the EP1 cDNA has previously been transfected. Cells are cultured in suitable flasks containing culture medium such as DMEM:F-12 supplemented with 10% v/v foetal calf serum, 2 mM L-glutamine, 0.25 mg/ml geneticin, 10 μg/ml puromycin and 10 μM indomethacin.
Cells are detached from the culture flasks by incubation in calcium and magnesium free phosphate buffered saline containing 1 mM disodium ethylenediaminetetraacetic acid (Na2EDTA) and 10 μM indomethacin for 5 min. The cells are isolated by centrifugation at 250×g for 5mins and suspended in an ice cold buffer such as 50 mM Tris, 1 mM Na2EDTA, 140 mM NaCl, 10 μM indomethacin (pH 7.4). The cells are homogenised using a Polytron tissue disrupter (2×10 s burst at full setting), centrifuged at 48,000×g for 20mins and the pellet containing the membrane fraction is washed (optional) three times by suspension and centrifugation at 48,000×g for 20mins. The final membrane pellet is suspended in an assay buffer such as 10 mM 2-[N-morpholino]ethanesulphonic acid, 1 mM Na2EDTA, 10 mM MgCl2 (pH 6). Aliquots are frozen at −80° C. until required.
For the binding assay the cell membranes, competing compounds and [^3H]-PGE2 (3 nM final assay concentration) are incubated in a final volume of 100 μl for 30 min at 30° C. All reagents are prepared in assay buffer. Reactions are terminated by rapid vacuum filtration over GF/B filters using a Brandell cell harvester. The filters are washed with ice cold assay buffer, dried and the radioactivity retained on the filters is measured by liquid scintillation counting in Packard TopCount scintillation counter.
The data are analysed using non linear curve fitting techniques to determine the concentration of compound producing 50% inhibition of specific binding (IC50).
On to `CC(C)COc1ccc(Cl)cc1Cc1cccc(-c2ncc[nH]2)n1` [Example 42, 2-({5-Chloro-2-[(2-methylpropyl)oxy]phenyl}methyl)-6-(1H-imidazol-2-yl)pyridine], for which the IC50 is not above 0.1 µM. Still for that read-out and setting: the result for `O=C(Nc1cccc(Cc2cc(Cl)ccc2OCc2ccccc2)n1)C1CCCO1` (centres unmarked) [Example 17, N-[6-({5-Chloro-2-[(phenylmethyl)oxy]phenyl}methyl)-2-pyridinyl]tetrahydro-2-furancarboxamide] reads not above 0.1 µM; that for `CN(C)Cc1ccc(NC(=O)c2cccc(Cc3cc(Cl)ccc3OCc3ccc(Cl)cc3F)n2)cc1` [Example 53, 6-[(5-Chloro-2-{[(4-chloro-2-fluorophenyl)methy]oxy}phenyl)methyl]-N-{4-[(dimethylamino)methyl]phenyl}-2-pyridinecarboxamide], not above 0.1 µM.

The values are drawn from patent US20090099177A1, “PYRIDYL COMPOUNDS” (priority 2006, published 2009).
